In brackets after ≈: the same amount, converted by molar mass.
Key:
[1] = Compound solubility in water
acid ceramidase = target: T1, acid ceramidase (Homo sapiens, UniProt Q13510); assay: Acid ceramidase inhibition, biochemical fluorescent assay with cell lysates overexpressing acid ceramidase, substrate Rbm14-12; conditions: substrate Rbm14-12 6.3 μM, pH 4.5, 1 hr preincubation at RT
T1 construct: Cell lysates overexpressing acid ceramidase were used as the enzyme source; expressed in transfected cells
T1 sequence (Q13510 22-395): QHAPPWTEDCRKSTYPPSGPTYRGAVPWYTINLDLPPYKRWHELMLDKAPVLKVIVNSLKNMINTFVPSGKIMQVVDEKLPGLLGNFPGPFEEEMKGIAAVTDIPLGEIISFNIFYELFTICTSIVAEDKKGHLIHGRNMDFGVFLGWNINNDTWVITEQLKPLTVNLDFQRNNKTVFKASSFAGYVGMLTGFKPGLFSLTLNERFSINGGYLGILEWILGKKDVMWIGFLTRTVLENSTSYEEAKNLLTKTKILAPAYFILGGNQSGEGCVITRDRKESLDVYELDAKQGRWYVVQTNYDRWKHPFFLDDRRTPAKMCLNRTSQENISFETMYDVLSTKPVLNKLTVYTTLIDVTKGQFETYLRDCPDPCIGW
In short: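 Lysate of cells overexpressing acid ceramidase (10 μg protein) preincubated with compound dose series 1 hr at RT in 25 mM NaAC, 100 mM NaCl, pH 4.5, then reacted 1 hr with 6.3 μM Rbm14-12. Stopped with NaIO4/glycine buffer pH 10.6, fluorescence ex360/em446; IC50 by four-parameter fit.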

SMILES	solubility [1]	IC50 (acid ceramidase)
CC(C)CCNC(=O)n1c(=O)n(C)c2cccnc21 [Example 104, N-iso-Pentyl-1-methyl-2-oxo-1,2-dihydro-3H-imidazo[4,5-b]pyridine-3-carboxamide]	17 µg/mL (≈ 64.8 µM)	200 to 1000 nM
CC(C)CCNC(=O)n1c(=O)n(C)c2ncccc21 [Example 105, N-iso-Pentyl-3-methyl-2-oxo-2,3-dihydro-1H-imidazo[4,5-b]pyridine-1-carboxamide]	17.4 µg/mL (≈ 66.3 µM)	> 1000 nM
COc1nc2ccc(-c3cncnc3)cc2n1C(=O)NCCC(C)C [Example 106, N-iso-Pentyl-2-methoxy-6-(pyrimidin-5-yl)-1H-benzo[d]imidazole-1-carboxamide]	13.7 µg/mL (≈ 40.4 µM)	200 to 1000 nM
CCCCNC(=O)n1cnc2c(C3CCN(C)CC3)cc(C)cc21 [Example 107a]	31.7 µg/mL (≈ 96.5 µM)	200 to 1000 nM
CCC(C)NC(=O)n1c(OC)nc2ccc(-c3cncnc3)cc21 (centres unmarked) [Example 109a, N-(sec-Butyl)-2-methoxy-6-(pyrimidin-5-yl)-1H-benzo[d]imidazole-1-carboxamide]	28.7 µg/mL (≈ 88.2 µM)	> 1000 nM
CCC(C)NC(=O)n1c(OC)nc2cc(-c3cncnc3)ccc21 (centres unmarked) [Example 109b, N-(sec-butyl)-2-methoxy-5-(pyrimidin-5-yl)-1H-benzo[d]imidazole-1-carboxamide]	32.4 µg/mL (≈ 99.6 µM)	> 1000 nM
CC(C)CCNC(=O)n1c(=O)n(C)c2ncc(-c3cccnc3)cc21 [Example 110, N-iso-Pentyl-3-methyl-2-oxo-6-(pyridin-3-yl)-2,3-dihydro-1H-imidazo[4,5-b]pyridine-1-carboxamide]	18 µg/mL (≈ 53 µM)	> 1000 nM
Cc1cc(C2CCN(C)CC2)c2ncn(C(=O)NCCC(C)C)c2c1 [Example 112a]	22.9 µg/mL (≈ 66.9 µM)	200 to 1000 nM
CC(C)CCNC(=O)n1cnc2c(C3CCN(C)CC3)cc(Cl)cc21 [Example 112b]	20 µg/mL (≈ 55.1 µM)	200 to 1000 nM
CCOc1nc2ncccc2n1C(=O)NCCC(C)C [Example 114, 2-Ethoxy-N-iso-pentyl-1H-imidazo[4,5-b]pyridine-1-carboxamide]	16.8 µg/mL (≈ 60.8 µM)	200 to 1000 nM
COc1cccc2c1nc(OC)n2C(=O)NCCC(C)C [Example 115, N-iso-Pentyl-2,4-dimethoxy-1H-benzo[d]imidazole-1-carboxamide]	15.4 µg/mL (≈ 52.9 µM)	> 1000 nM
CCOc1nc2c(OC)cccc2n1C(=O)NCCC1CC1 [Example 116, N-(2-Cyclopropylethyl)-2-ethoxy-4-methoxy-1H-benzo[d]imidazole-1-carboxamide]	14.1 µg/mL (≈ 46.5 µM)	> 1000 nM
CCC(C)CNC(=O)n1c(OC)nc2c(OC)cccc21 (centres unmarked) [Example 117, 2,4-Dimethoxy-N-(2-methylbutyl)-1H-benzo[d]imidazole-1-carboxamide]	23.4 µg/mL (≈ 80.3 µM)	200 to 1000 nM
CC(C)CCNC(=O)n1cnc2c(N3CCOCC3)cccc21 [Example 118, N-iso-Pentyl-4-morpholino-1H-benzo[d]imidazole-1-carboxamide]	21 µg/mL (≈ 66.4 µM)	200 to 1000 nM
CC(C)CCNC(=O)n1cnc2c(N3CCN(C)CC3)cccc21 [Example 119, N-iso-Pentyl-4-(4-methylpiperazin-1-yl)-1H-benzo[d]imidazole-1-carboxamide]	23 µg/mL (≈ 69.8 µM)	200 to 1000 nM
COc1cccc2c1ncn2C(=O)NCCC1CC1 [Example 121, N-(2-Cyclopropylethyl)-4-methoxy-1H-benzo[d]imidazole-1-carboxamide]	22.6 µg/mL (≈ 87.2 µM)	200 to 1000 nM
CC(C)CNC(=O)n1c(=O)n(C)c2ccc(-c3cccnc3)cc21 [Example 123, N-iso-Butyl-3-methyl-2-oxo-6-(pyridin-3-yl)-2,3-dihydro-1H-benzo[d]imidazole-1-carboxamide]	0.6 µg/mL (≈ 1.85 µM)	> 1000 nM
O=C(NCCc1ccccc1)n1c(=O)[nH]c2cccnc21 [Example 124, 2-Oxo-N-phenethyl-1H-imidazo[4,5-b]pyridine-3(2H)-carboxamide]	4 µg/mL (≈ 14.2 µM)	> 1000 nM
CSc1nc2cc(-c3cccnc3)cnc2n1C(=O)NCC(C)C [Example 125]	6 µg/mL (≈ 17.6 µM)	200 to 1000 nM
CC(C)CNC(=O)n1cnc2ccc(-c3cncs3)cc21 [Example 126b, N-iso-butyl-6-(thiazol-5-yl)-1H-benzo[d]imidazole-1-carboxamide]	14 µg/mL (≈ 46.6 µM)	200 to 1000 nM
CCn1c(=O)n(C(=O)NCCc2ccccc2)c2ncccc21 [Example 127, 1-Ethyl-2-oxo-N-phenethyl-1H-imidazo[4,5-b]pyridine-3(2H)-carboxamide]	23 µg/mL (≈ 74.1 µM)	200 to 1000 nM
COc1nc2cccnc2n1C(=O)NCCCCn1ccc(C(C)(C)C)n1 [Example 135a, N-(4-(3-(tert-Butyl)-1H-pyrazol-1-yl)butyl)-2-methoxy-3H-imidazo[4,5-b]pyridine-3-carboxamide]	15 µg/mL (≈ 40.5 µM)	< 200 nM
COc1cc(C2CCN(C)CC2)c2ncn(C(=O)NCCCCc3ccccc3)c2c1 [Example 136, 6-Methoxy-4-(1-methylpiperidin-4-yl)-N-(4-phenylbutyl)-1H-benzo[d]imidazole-1-carboxamide]	21 µg/mL (≈ 49.9 µM)	< 200 nM
O=C(NCCCCc1ccccc1)n1cnc2c(N3CCOCC3)cccc21 [Example 137, 4-Morpholino-N-(4-phenylbutyl)-1H-benzo[d]imidazole-1-carboxamide]	0.6 µg/mL (≈ 1.59 µM)	< 200 nM

Next, values leading:

solubility [1]	IC50 (acid ceramidase)	SMILES
11.9 µg/mL (≈ 38.5 µM)	< 200 nM	CC(C)CCNC(=O)n1cnc2cc(-c3cncnc3)ccc21 [Example 103b, N-iso-pentyl-5-(pyrimidin-5-yl)-1H-benzo[d]imidazole-1-carboxamide]
13.9 µg/mL (≈ 60.1 µM)	< 200 nM	CC(C)CCNC(=O)n1cnc2ccccc21 [Example 107, N-iso-Pentyl-1H-benzo[d]imidazole-1-carboxamide]
6.8 µg/mL (≈ 24.3 µM)	< 200 nM	Cc1ccc(CCNC(=O)n2cnc3ccccc32)cc1 [Example 108, N-(4-Methylphenethyl)-1H-benzo[d]imidazole-1-carboxamide]
6 µg/mL (≈ 17.1 µM)	< 200 nM	COc1nc2ccc(-c3cncnc3)cc2n1C(=O)NC1CCCCC1 [Example 111a, N-Cyclohexyl-2-methoxy-6-(pyrimidin-5-yl)-1H-benzo[d]imidazole-1-carboxamide]
22 µg/mL (≈ 62.6 µM)	< 200 nM	COc1nc2cc(-c3cncnc3)ccc2n1C(=O)NC1CCCCC1 [Example 111b, N-cyclohexyl-2-methoxy-5-(pyrimidin-5-yl)-1H-benzo[d]imidazole-1-carboxamide]
21 µg/mL (≈ 66 µM)	< 200 nM	CC(C)CCNC(=O)n1c(OCCN(C)C)nc2ccccc21 [Example 120, 2-(2-(Dimethylamino)ethoxy)-N-iso-pentyl-1H-benzo[d]imidazole-1-carboxamide]
0.04 µg/mL (≈ 0.0996 µM)	< 200 nM	COc1nc2cc(-c3cccnc3)cnc2n1C(=O)NCCCCc1ccccc1 [Example 122, 2-Methoxy-N-(4-phenylbutyl)-6-(pyridin-3-yl)-3H-imidazo[4,5-b]pyridine-3-carboxamide]
6 µg/mL (≈ 20 µM)	< 200 nM	CC(C)CNC(=O)n1cnc2cc(-c3cncs3)ccc21 [Example 126a, N-iso-Butyl-5-(thiazol-5-yl)-1H-benzo[d]imidazole-1-carboxamide]
15 µg/mL (≈ 56.3 µM)	< 200 nM	[2H]c1nc2ccccc2n1C(=O)NCCc1ccccc1 [Example 128, N-Phenethyl-1H-benzo[d]imidazole-2-d-1-carboxamide]
1.3 µg/mL (≈ 4.08 µM)	< 200 nM	N#Cc1cccc2c1ncn2C(=O)NCCCCc1ccccc1 [Example 130, 4-Cyano-N-(4-phenylbutyl)-1H-benzo[d]imidazole-1-carboxamide]
5 µg/mL (≈ 15.6 µM)	< 200 nM	N#Cc1cccc2c1ncn2C(=O)NCCCOc1ccccc1 [Example 131, 4-Cyano-N-(3-phenoxypropyl)-1H-benzo[d]imidazole-1-carboxamide]
0.2 µg/mL (≈ 0.54 µM)	< 200 nM	COc1cc(N2CCCCC2)c2ncn(C(=O)NCCCCC3CC3)c2c1 [Example 132, N-(4-Cyclopropylbutyl)-6-methoxy-4-(piperidin-1-yl)-1H-benzo[d]imidazole-1-carboxamide]
1 µg/mL (≈ 2.45 µM)	< 200 nM	COc1nc2ccc(N3CCOCC3)cc2n1C(=O)NCCCCc1ccccc1 [Example 133a, 2-Methoxy-6-morpholino-N-(4-phenylbutyl)-1H-benzo[d]imidazole-1-carboxamide]
2 µg/mL (≈ 4.9 µM)	< 200 nM	COc1nc2cc(N3CCOCC3)ccc2n1C(=O)NCCCCc1ccccc1 [Example 133b, 2-methoxy-5-morpholino-N-(4-phenylbutyl)-1H-benzo[d]imidazole-1-carboxamide]
17 µg/mL (≈ 43.1 µM)	< 200 nM	COc1nc2ccc(N3CCOCC3)cc2n1C(=O)NCCCc1ccccc1 [Example 134a, 2-Methoxy-6-morpholino-N-(3-phenylpropyl)-1H-benzo[d]imidazole-1-carboxamide]
16 µg/mL (≈ 40.6 µM)	< 200 nM	COc1nc2cc(N3CCOCC3)ccc2n1C(=O)NCCCc1ccccc1 [Example 134b, 2-methoxy-5-morpholino-N-(3-phenylpropyl)-1H-benzo[d]imidazole-1-carboxamide]

From patent US20220380319A1 (Bial - R&D Investments, S.A., priority 2019, published 2022)
